What was measured:
[1] = human, in vivo; cited from earlier work
Description: It is challenging to ascertain the optimal dosing regimen for caspofungin based on MIC breakpoints. The European Committee on Antimicrobial Susceptibility Testing (EUCAST) MIC breakpoints have yet to be established for caspofungin against Candida spp. due to significant interlaboratory variation in MIC reporting ([18]). Until this problem is resolved, Candida isolates that are susceptible to anidulafungin and micafungin should also be considered susceptible to caspofungin.

[2] = human, in vivo; cited from earlier work; remark: listed apart in the source
[3] = Population pharmacokinetics of caspofungin in critically ill patients receiving ECMO; assay type: in vivo, human
Procedure: The present analysis is part of the ASAP ECMO study program that was conducted from November 2012 to November 2019 ([8]). The ASAP ECMO study was a prospective, open-labeled multicenter pharmacokinetic study performed in six ICUs across Australia, New Zealand, South Korea, and Switzerland. A detailed study protocol has been previously described elsewhere ([8], [9]), and as such, is only briefly outlined in this paper.
Patients were eligible for recruitment if they were adult (18–90 years old) ICU patients who were receiving caspofungin while undergoing ECMO therapy for cardiac and/or respiratory failure. Patients were excluded if they required massive blood transfusion (i.e., >50% of blood volume in the preceding 8 hours), received therapeutic plasma exchange in the preceding 24 hours, had bilirubin >150 µmol/L, were pregnant, or were known to be allergic to caspofungin.
Caspofungin was reconstituted and administered as an intermittent intravenous infusion in accordance with the standard administration protocol at each participating center. Caspofungin dosing regimens, ECMO modalities/configurations, and all other subsequent patient management (e.g., RRT application) were determined by the treating clinician in accordance with local clinical guidelines and practices.
Pharmacokinetic sampling was performed during a single dosing interval once the patient had been stabilized on ECMO. Blood samples were drawn from an existing arterial line and were collected into lithium-heparinized tubes. Blood samples were collected at 0, 0.25, 0.5, 0.75, 1, 1.5, 2, 3, 6, 8, 12, and 24 hours after commencement of infusion.
The blood samples were centrifuged at 3,000 × g for 10 minutes to obtain plasma, which was then frozen at –80°C and stored locally at participating sites. The frozen plasma samples were shipped on dry ice by a commercial courier company to the central bioanalysis laboratory at the University of Queensland Centre for Clinical Research (UQCCR) for bioanalysis.
Total caspofungin concentrations in plasma were measured by a validated ultra-high performance liquid chromatography method on a Nexera X2 system connected to a Shimadzu 8030 + triple quadrupole mass spectrometer (Shimadzu Corporation, Kyoto, Japan). Dicloxacillin was used as the internal standard. The assay was performed in batches, and samples were analyzed concurrently with calibration standards and quality-control replicates at high (18 mg/L), medium (3 mg/L), and low (0.6 mg/L) concentrations. The assay limit for caspofungin in plasma was 0.1 mg/L and linearity was established within a range of 0.1–20 mg/L. Precision and accuracy at three different concentrations were all within 12%. Bioanalysis methods were performed in accordance with the U.S. Food and Drug Administration’s guidance for industry on bioanalysis ([10]).
Plasma concentration-time data for caspofungin were analyzed using a nonlinear mixed-effect modeling approach in Monolix version 2021R2 (Lixoft, Antony, France) implementing the stochastic approximation expectation maximization (SAEM) algorithm. Plasma concentration-time data for caspofungin were fitted to one- and two-compartment disposition models with first-order elimination. Between-subject variability (BSV or ω) was described using an exponential model: […]

[4] = design: method as in PMID 17660480, PMID 11850256; settings: human, in vivo; cited from earlier work

## CC[C@H](C)C[C@H](C)CCCCCCCCC(=O)N[C@H]1C[C@@H](O)[C@@H](NCCN)NC(=O)[C@@H]2[C@@H](O)CCN2C(=O)[C@H]([C@H](O)CCN)NC(=O)[C@H]([C@H](O)[C@@H](O)c2ccc(O)cc2)NC(=O)[C@@H]2C[C@@H](O)CN2C(=O)[C@H]([C@@H](C)O)NC1=O [caspofungin]
[1]
  dose demonstrated to be safe: up to 200 mg/day
[2]
  AUC0–24 exposure reported in ICU patients: 74 to 135 µg·h/mL
  typical clearance in other studies: 0.27 to 0.98 L/h
  typical volume of distribution in other studies: 6.19 to 20.91 L
[3]; ECMO duration, mode and flow rate tested as covariates, no significant effect
  impact of ECMO on caspofungin pharmacokinetics: negligible impact
[3]; exponent in V=Vpop × (LBW/58.9)^1.24, final model
  LBW effect on V, Estimate (%RSE): 1.24 (23.3)
[3]; human, plasma, 8 critically ill patients on ECMO, maintenance dose 50 or 70 mg daily IV, median, read-out: median AUC0–24 exposure
  AUC(0-t): 115 µg·h/mL
[3]; typical population value, final one-compartment model with first-order elimination, 8 ECMO patients, 64 total plasma concentrations (UHPLC-MS/MS), IV infusion, LD 70 mg then 50 or 70 mg daily
  CL, Estimate (%RSE): 0.55 (11.9) L/h
[3]; typical population value, final one-compartment model, LBW centred on 58.9 kg, 8 ECMO patients, 64 total plasma concentrations
  V, Estimate (%RSE): 8.13 (7.15) L
[4]
  AUC0–24 exposure in healthy volunteers: 98 µg·h/mL

Reference: PMC11823646, “Population pharmacokinetics of caspofungin in critically ill patients receiving extracorporeal membrane oxygenation—an ASAP ECMO study” (Antimicrobial Agents and Chemotherapy, 2024)
